Test results reported in patent publication US20090298800A1, “1,25-DIHYDROXY, 20-CYCLOPROPYL,26-27-DEUTEROALKYL VITAMIN D3 COMPOUNDS AND METHODS OF USE THEREOF” (BioXell S.p.A., priority 2005, published 2009).

Tests used:
IFN-γ production = IFN-γ production in the mixed leukocyte response (MLR) of allogeneic PBMC; assay type: cell-based; details: 120 h, 5 days, ELISA, read-out: INF-γ IC50
Experimental: Immature dendritic cells (DC) were prepared as described in Romani, N. et al. (Romani, N. et al. (1996) J. Immunol. Methyl. 196:137). IFN-γ production by allogeneic T cell activation in the mixed leukocyte response (MLR) was determined as described in Penna, G., et al., J Immunol., 164: 2405-2411 (2000).
Briefly, peripheral blood mononuclear cells (PBMC) were separated from buffy coats by Ficoll gradient and the same number (3×10^5) of allogeneic PBMC from 2 different donors were co-cultured in 96-well flat-bottom plates. The vitamin D3 compounds were added to each of the cultures. After 5 days, IFN-γ production in the MLR assay was measured by ELISA and the results expressed as amount (nM) of test compound required to induce 50% inhibition of IFN-γ production (IC50).

RT112 = assay: Proliferation assay, bladder cancer cell line RT112; assay type: cell-based, human; details: 72 h culture, CyQuant proliferation assay
Experimental: (§1) Bladder cancer cell lines (T24, RT112, HT1376 and RT4 are human bladder cancer cell lines; NHEK are normal human keratinocytes) were obtained from the European Collection of Cell Cultures (Salisbury, UK). Cells were plated at 3×10^3 per well, in flat bottomed 96-well plates in 100 μl of DMEM medium containing: 5% Fetal Clone i, […] gentamicin, 1 mM sodium pyruvate and 1% non-essential amino acids. After culturing for 24 h at 37° C. in 5% CO2, to allow cells to adhere to the plates, VDR ligands (compounds (1)-(9)) were added at concentrations ranging from 100 μM to 0.3 μM in 100 μl of above-mentioned complete medium. After a further 72 h of culture, cell proliferation was measured using a fluorescence-based proliferation assay kit. (CyQuant Cell Proliferation Assay Kit, Molecular Probes, Eugene, Oreg., USA). The IC50 was calculated from the regression curve of the titration data.

HT 1376 = assay: Proliferation assay, bladder cancer cell line HT1376; assay type: cell-based; details: Homo sapiens, 72 h culture, CyQuant proliferation assay
Experimental: as §1

RT4 = assay: Proliferation assay, bladder cancer cell line RT4; assay type: cell-based, human; details: 72 h culture, CyQuant proliferation assay
Experimental: as §1

NHEK = assay: Proliferation assay, normal human keratinocytes NHEK; assay type: cell-based; details: 72 h culture, CyQuant proliferation assay
Experimental: as §1

[1] = Determination of Maximum Tolerated Dose (MTD) in mice (serum calcium); assay type: in vivo; details: mouse, po; female C57BL/6 mice, p.o. daily for four days; highest dose without hypercalcemia (serum calcium>10.7 mg/dl)
Experimental: The maximum tolerated dose of the vitamin D3 compounds of the invention were determined in eight week-old female C57BL/6 mice (3 mice/group) dosed orally (0.1 ml/mouse) with various concentrations of Vitamin D3 analogs daily for four days. Analogs were formulated in miglyol for a final concentration of 0.01, 0.03, 0.1, 0.3, 1, 3, 10, 30, 100 and 300 μg/kg when given at 0.1 ml/mouse p.o. daily. Blood for serum calcium assay was drawn by tail bleed on day five, the final day of the study. Serum calcium levels were determined using a colorimetric assay (Sigma Diagnostics, procedure no. 597). The highest dose of analog tolerated without inducing hypercalcemia (serum calcium>10.7 mg/dl) was taken as the maximum tolerated dose (MTD).

Renin mRNA = Renin mRNA inhibition in murine juxtaglomerular cell line As4.1; assay type: cell-based; details: Mus musculus, As4.1 cells treated 24 h at 10^−8, 10^−9 and 10^−10 M, real time PCR normalized to β-actin, read-out: Renin mRNA inh.As4.1/wt
Experimental: As4.1 cells (80% subconfluent) were treated in complete medium with compounds of the invention at 10^−8,10^−9 and 10^−10 M for 24 h. Total RNA was extracted using RNeasy Mini kit (Qiagen); treated with DNase I (Qiagen) and Reverse Transcription Reagent (Applied Biosystems) with Random Examers were used for reverse transcription according to the manufacturers' instructions. Real Time PCR analysis was performed in multiplex using commercially available β-actin VIC-conjugated probe (cat. n. 4352341E, Applied Biosystems) and custom designed mRENIN FAM-conjugated probe (Assay by Design, Applied Biosystems; Forward: […]; Reverse: […]; Probe: FAM-[…]-MGB). Reactions were performed in a 25 μL volume containing 12.5 μl […] (Applied Biosystems), 10 ng/reaction/well cDNA, and 2.5 μM each gene-specific primer. An ABI PRISM 7700 analyzer (Applied Biosystems) was used at 50° C. for 2 minutes and 95° C. for 10 minutes, followed by 40 cycles at 95° C. for 15 seconds and 60° C. for 1 minute. Cycle threshold (Ct) values were exported onto Excel worksheets for analysis. Test cDNA results were normalized versus mouse β-actin housekeeping gene. Fold differences in gene expression between the subtracted versus the unsubtracted populations were expressed using the method of 2^−ΔΔCt. (Table 4)

Row | Structure (SMILES) | IC50 (IFN-γ production) | IC50 (RT112) | IC50 (RT112; Homo sapiens, RT-112, 72 h) | IC50 (HT 1376) | IC50 (RT4) | IC50 (RT4; Homo sapiens, RT-4, 72 h) | IC50 (NHEK) | MTD at 4 days [1] | IC50 (RT112; Homo sapiens, RT-112) | IC50 (RT4; Homo sapiens, RT-4) | IC50 (Renin mRNA)
1 | C=C1/C(=C\C=C2/CCC[C@]3(C)C([C@H](C)CCCC(C)(C)O)CC[C@@H]23)C[C@@H](O)C[C@@H]1O (stereo partly drawn) [1,25(OH)2D3, 1,25-dihydroxycholecalciferol, reference compound] | 0.0496 nM | 28.7 µM | 19 µM | 50 µM | 26 µM | 45 µM | 4.5 µM | – | – | – | –
2 | [2H]C([2H])([2H])C(O)(CCCC1([C@H]2CCC3/C(=C/C=C4C[C@@H](O)C[C@H](O)C4)CCC[C@@]32C)CC1)C([2H])([2H])[2H] (stereo partly drawn) [Compound 1, 1,25-Dihydroxy-20-cyclopropyl-26,27-hexadeutero-19-nor-cholecalciferol] | 0.051 nM | – | – | – | – | – | 5.6 µM | 0.03 mg/kg | > 30 µM | 11.7 µM | 0.155 µM
3 | [2H]C([2H])([2H])C(O)(CCCC1([C@H]2CCC3/C(=C/C=C4C[C@@H](OC(C)=O)C[C@H](OC(C)=O)C4)CCC[C@@]32C)CC1)C([2H])([2H])[2H] (stereo partly drawn) [Compound 2, 1,3-Di-O-acetyl-1,25-dihydroxy-20-cyclopropyl-26,27-hexadeutero-19-nor-cholecalciferol] | 0.388 nM | – | – | – | – | – | 7.2 µM | 0.03 mg/kg | 16.3 µM | 3.1 µM | 0.102 µM
4 | [2H]C([2H])([2H])C(O)(CCCC1([C@H]2CCC3/C(=C/C=C4/C[C@@H](O)C[C@H](O)C4=C)CCC[C@@]32C)CC1)C([2H])([2H])[2H] (stereo partly drawn) [Compound 3, 1,25-Dihydroxy-20-cyclopropyl-26,27-hexadeutero-cholecalciferol] | 0.065 nM | – | – | – | – | – | 6.6 µM | 0.03 mg/kg | 19.7 µM | 2.9 µM | 0.0429 µM
5 | [2H]C([2H])([2H])C(O)(CCCC1([C@H]2CCC3/C(=C/C=C4/C[C@@H](OC(C)=O)C[C@H](OC(C)=O)C4=C)CCC[C@@]32C)CC1)C([2H])([2H])[2H] (stereo partly drawn) [Compound 4, 1,3-Di-O-acetyl-1,25-dihydroxy-20-cyclopropyl-26,27-hexadeutero-cholecalciferol] | 0.464 nM | – | – | – | – | – | 5.6 µM | 0.03 mg/kg | 18.7 µM | 3 µM | 0.274 µM
6 | [2H]C([2H])([2H])C(O)(CCCC1([C@H]2CCC3/C(=C/C=C4/C[C@@H](O)C[C@H](F)C4=C)CCC[C@@]32C)CC1)C([2H])([2H])[2H] (stereo partly drawn) [Compound 5, 1α-Fluoro-25-hydroxy-20-cyclopropyl-26,27-hexadeutero-cholecalciferol] | > 10 nM | – | – | – | – | – | 4.7 µM | 0.1 mg/kg | 15.7 µM | 3.1 µM | –
7 | [2H]C([2H])([2H])C(O)(CCCC1([C@H]2CCC3/C(=C/C=C4/C[C@@H](OC(C)=O)C[C@H](F)C4=C)CCC[C@@]32C)CC1)C([2H])([2H])[2H] (stereo partly drawn) [Compound 6, 3-O-acetyl-1α-fluoro-25-hydroxy-20-cyclopropyl-cholecalciferol] | 0.747 nM | – | – | – | – | – | 5.6 µM | 0.03 mg/kg | 19.7 µM | 4.5 µM | 0.00448 µM
8 | [2H]C([2H])([2H])C(O)(CCCC1(C2=CCC3/C(=C/C=C4/CC(O)C[C@H](O)C4)CCC[C@]23C)CC1)C([2H])([2H])[2H] (stereo partly drawn) [Compound 7, 1,25-Dihydroxy-16-ene-20 cyclopropyl-26,27-hexadeutero-19-nor-cholecalciferol] | 0.032 nM | – | – | – | – | – | > 10 µM | 0.001 mg/kg | > 30 µM | 8.9 µM | 0.00736 µM
9 | [2H]C([2H])([2H])C(O)(CCCC1(C2=CCC3/C(=C/C=C4/CC(O)C[C@H](O)C4=C)CCC[C@]23C)CC1)C([2H])([2H])[2H] (stereo partly drawn) [Compound 8, 1,25-Dihydroxy-16-ene-20-cyclopropyl-26,27-hexadeutero-cholecalciferol] | 0.063 nM | – | – | – | – | – | 7 µM | 0.01 mg/kg | ≥ 30 µM | 2.4 µM | 0.00489 µM
10 | [2H]C([2H])([2H])C(O)(CCCC1(C2=CCC3/C(=C/C=C4/CC(O)C[C@H](F)C4=C)CCC[C@]23C)CC1)C([2H])([2H])[2H] (stereo partly drawn) [Compound 9, 1α-Fluoro-25-hydroxy-16-ene-20-cyclopropyl-26,27-hexadeutero-cholecalciferol] | 0.492 nM | – | – | – | – | – | 7 µM | 0.01 mg/kg | ≥ 30 µM | 4.3 µM | 0.0128 µM
